Measured values as given in patent US20260374756A1, “HETEROCYCLIC COMPOUNDS AS INHIBITORS OF MONOACYLGLYCEROL LIPASE (MAGL)” (Hoffmann-La Roche Inc., priority 2022, published 2026).

Molecular target: T1, hMAGL (Homo sapiens, UniProt Q99685)
T1 sequence (Q99685 1-303): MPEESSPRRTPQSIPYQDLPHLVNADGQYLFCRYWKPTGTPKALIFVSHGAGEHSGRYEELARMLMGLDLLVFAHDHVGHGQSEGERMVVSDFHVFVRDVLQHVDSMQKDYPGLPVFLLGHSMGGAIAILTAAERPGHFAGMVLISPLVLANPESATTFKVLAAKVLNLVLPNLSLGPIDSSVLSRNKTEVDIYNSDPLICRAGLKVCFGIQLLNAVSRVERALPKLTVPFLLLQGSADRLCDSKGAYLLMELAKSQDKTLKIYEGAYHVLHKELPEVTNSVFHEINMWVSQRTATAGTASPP
Assay: 2-AG assay: MAGL inhibition, hydrolysis of 2-arachidonoylglycerol to arachidonic acid followed by mass spectrometry
Type: biochemical
In short: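 Read-out is LC-MS/MS of arachidonic acid released from 2-arachidonoylglycerol (8 μM final), normalised to d8-arachidonic acid internal standard after acetonitrile quench. Enzyme […] and compound were pre-mixed 15 min, then reacted 30 min, both at RT, in Tris/EDTA buffer with 0.01% Tween-20 and 2.5% DMSO.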

| SMILES | IC50 |
| --- | --- |
| O=C(N1CC2(CC(n3cnc(C4(O)CC4)n3)C2)C1)N1CC2(CN(Cc3cnc(C(F)(F)F)s3)C2)C1 [Example 19] | 34.5 nM |
| Cc1c(CN2CC3(C2)CN(C(=O)N2CC4(CC(n5cnc(C(F)(F)F)n5)C4)C2)C3)cnn1CC(F)(F)F [Example 114, [6-[[5-methyl-1-(2,2,2-trifluoroethyl)pyrazol-4-yl]methyl]-2,6-diazaspiro[3.3]heptan-2-yl]-[6-[3-(trifluoromethyl)-1,2,4-triazol-1-yl]-2-azaspiro[3.3]heptan-2-yl]methanone] | 311 nM |
| CC(F)(F)c1noc(CN2CC3(C2)CN(C(=O)N2CC4(CC(n5cnc(C6CC6)n5)C4)C2)C3)n1 [Example 259, [6-(3-cyclopropyl-1,2,4-triazol-1-yl)-2-azaspiro[3.3]heptan-2-yl]-[6-[[3-(1,1-difluoroethyl)-1,2,4-oxadiazol-5-yl]methyl]-2,6-diazaspiro[3.3]heptan-2-yl]methanone] | 8.92 nM |
| Cn1ncc(CC2CC3(C2)CN(C(=O)N2CC4(CC(n5cnc(C6(O)CC6)n5)C4)C2)C3)c1C(F)(F)F [Example 1, [6-[3-(1-hydroxycyclopropyl)-1,2,4-triazol-1-yl]-2-azaspiro[3.3]heptan-2-yl]-[6-[[1-methyl-5-(trifluoromethyl)pyrazol-4-yl]methyl]-2-azaspiro[3.3]heptan-2-yl]methanone] | 0.47 nM |
| O=C(N1CC2(CC(n3cnc(C4CC4)n3)C2)C1)N1CC2(CN(Cc3cc(C(F)(F)F)ns3)C2)C1 [Example 154, [6-(3-cyclopropyl-1,2,4-triazol-1-yl)-2-azaspiro[3.3]heptan-2-yl]-[6-[[3-(trifluoromethyl)isothiazol-5-yl]methyl]-2,6-diazaspiro[3.3]heptan-2-yl]methanone] | 2.64 nM |
| O=C(N1CC2(CC(n3cnc(C4CC4)n3)C2)C1)N1CC2(CN(Cc3nc(-c4ccccc4)no3)C2)C1 [Example 245, [6-(3-cyclopropyl-1,2,4-triazol-1-yl)-2-azaspiro[3.3]heptan-2-yl]-[6-[(3-phenyl-1,2,4-oxadiazol-5-yl)methyl]-2,6-diazaspiro[3.3]heptan-2-yl]methanone] | 1.2 nM |
| O=C(N1CC2(CC(c3cc(C4CC4)n[nH]3)C2)C1)N1CC2(CN(Cc3ncc(C(F)(F)F)s3)C2)C1 [Example 147, [6-(3-cyclopropyl-1H-pyrazol-5-yl)-2-azaspiro[3.3]heptan-2-yl]-[6-[[5-(trifluoromethyl)thiazol-2-yl]methyl]-2,6-diazaspiro[3.3]heptan-2-yl]methanone] | 1.04 nM |
| O=C(N1CC2(CC(n3cnc(C4CC4)n3)C2)C1)N1CC2(CN(Cc3nccn3CC(F)(F)F)C2)C1 [Example 234, [6-(3-cyclopropyl-1,2,4-triazol-1-yl)-2-azaspiro[3.3]heptan-2-yl]-[6-[[1-(2,2,2-trifluoroethyl)imidazol-2-yl]methyl]-2,6-diazaspiro[3.3]heptan-2-yl]methanone] | 41.3 nM |
| O=C(N1CC2(CC(Cc3cnn(CC(F)(F)F)c3)C2)C1)N1CC2(CC(c3cc(C4CC4)n[nH]3)C2)C1 [Example 290, [6-(3-cyclopropyl-1H-pyrazol-5-yl)-2-azaspiro[3.3]heptan-2-yl]-[6-[[1-(2,2,2-trifluoroethyl)pyrazol-4-yl]methyl]-2-azaspiro[3.3]heptan-2-yl]methanone] | 0.86 nM |
| O=C(N1CC2(CC(Cn3nccc3C(F)(F)F)C2)C1)N1CC2(CC(n3cnc(C4(O)CC4)n3)C2)C1 [Example 4] | 1.74 nM |
| O=C(N1CC2(CC(n3cnc(C4CC4)n3)C2)C1)N1CC2(CN(Cc3cc(C4CC4)n[nH]3)C2)C1 [Example 283, [6-[(3-cyclopropyl-1H-pyrazol-5-yl)methyl]-2,6-diazaspiro[3.3]heptan-2-yl]-[6-(3-cyclopropyl-1,2,4-triazol-1-yl)-2-azaspiro[3.3]heptan-2-yl]methanone] | 8 nM |
| Cn1ncc(C(F)(F)F)c1CN1CC2(C1)CN(C(=O)N1CC3(CC(n4cnc(C(F)(F)F)n4)C3)C1)C2 [Example 158, [6-[[2-methyl-4-(trifluoromethyl)pyrazol-3-yl]methyl]-2,6-diazaspiro[3.3]heptan-2-yl]-[6-[3-(trifluoromethyl)-1,2,4-triazol-1-yl]-2-azaspiro[3.3]heptan-2-yl]methanone] | 9.26 nM |
| O=C(N1CC2(CC(n3cnc(C4(O)CC4)n3)C2)C1)N1CC2(CN(Cc3ncc(C(F)(F)F)s3)C2)C1 [Example 148, [6-[3-(1-hydroxycyclopropyl)-1,2,4-triazol-1-yl]-2-azaspiro[3.3]heptan-2-yl]-[6-[[5-(trifluoromethyl)thiazol-2-yl]methyl]-2,6-diazaspiro[3.3]heptan-2-yl]methanone] | 10.8 nM |
| O=C(N1CC2(CC(n3cnc(C(F)(F)F)n3)C2)C1)N1CC2(CN(Cc3nccn3C(F)(F)F)C2)C1 [Example 235, [6-[[1-(trifluoromethyl)imidazol-2-yl]methyl]-2,6-diazaspiro[3.3]heptan-2-yl]-[6-[3-(trifluoromethyl)-1,2,4-triazol-1-yl]-2-azaspiro[3.3]heptan-2-yl]methanone] | 68.7 nM |
| O=C(N1CC2(CC(n3cnc(C(F)(F)F)n3)C2)C1)N1CC2(CN(Cc3ccn(C(F)(F)F)n3)C2)C1 [Example 116, [6-[[1-(trifluoromethyl)pyrazol-3-yl]methyl]-2,6-diazaspiro[3.3]heptan-2-yl]-[6-[3-(trifluoromethyl)-1,2,4-triazol-1-yl]-2-azaspiro[3.3]heptan-2-yl]methanone] | 161 nM |
| O=C(N1CC2(CC(n3cnc(C(F)(F)F)n3)C2)C1)N1CC2(CN(Cc3cnn(CC(F)(F)F)c3)C2)C1 [Example 109, [6-[[1-(2,2,2-trifluoroethyl)pyrazol-4-yl]methyl]-2,6-diazaspiro[3.3]heptan-2-yl]-[6-[3-(trifluoromethyl)-1,2,4-triazol-1-yl]-2-azaspiro[3.3]heptan-2-yl]methanone] | 1380 nM |
| O=C(N1CC2(CC(n3cnc(C(F)(F)F)n3)C2)C1)N1CC2(CN(Cc3cc(C(F)(F)F)on3)C2)C1 [Example 189, [6-[[5-(trifluoromethyl)isoxazol-3-yl]methyl]-2,6-diazaspiro[3.3]heptan-2-yl]-[6-[3-(trifluoromethyl)-1,2,4-triazol-1-yl]-2-azaspiro[3.3]heptan-2-yl]methanone] | 50.1 nM |
| Cc1cc(C2CC2)nn1CC1CC2(C1)CN(C(=O)N1CC3(CC(n4cnc(C5(O)CC5)n4)C3)C1)C2 [Example 136, [6-[(3-cyclopropyl-5-methyl-pyrazol-1-yl)methyl]-2-azaspiro[3.3]heptan-2-yl]-[6-[3-(1-hydroxycyclopropyl)-1,2,4-triazol-1-yl]-2-azaspiro[3.3]heptan-2-yl]methanone] | 5.53 nM |
